Data reported in patent US20220169632A1, “METHODS AND MATERIALS FOR INCREASING OR MAINTAINING NICOTINAMIDE MONONUCLEOTIDE ADENYLYL TRANSFERASE-2 (NMNAT2) POLYPEPTIDE LEVELS” (University of Pittsburgh - Of the Commonwealth System of …, priority 2019, published 2022).

System: NMNAT2
Experiment: NMNAT2-Hibit nano-luciferase activity in stably transfected U87MG cells, various concentrations, 24 hours
Type: cell-based
Details: U87MG cells stably transfected with NMNAT2-Hibit luc plasmid
Method: Selected compounds were tested in vitro. U87MG cells were stably transfected with NMNAT2-Hibit luc plasmid. Cells were treated with a test compound at various concentrations for 24 hours. Cells were then collected and assayed for nano-luciferase activity.

Compound	E: compound efficacy for NMNAT2 activation (concentration giving >25% increase in NMNAT2 luciferase activity)
Cc1cccc(CNC(=O)c2ccc3c(c2)c(C)c(C)n3Cc2cccc(F)c2)c1 [BC20114]	++ (“++” >25% increase in NMNAT2 luciferase activity at >1 μM ≤25 μM.)
O=C(Cn1cc(C(=O)c2ccc(Cl)cc2)c2ccccc21)NCCc1ccccc1 [BC20215]	++ (“++” >25% increase in NMNAT2 luciferase activity at >1 μM ≤25 μM.)
Cc1ccc(C)c(Cn2c(C)c([C@H]3C[C@@H]3C(=O)NCc3ccco3)c3ccccc32)c1 (racemic) [BC20323]	+ (“+” >25% increase in NMNAT2 luciferase activity at >25 μM.)
Cc1ccc(C)c(Cn2c(C)c([C@H]3C[C@@H]3C(=O)NCc3cccc(F)c3)c3ccccc32)c1 (racemic) [BC20302]	+ (“+” >25% increase in NMNAT2 luciferase activity at >25 μM.)
Cc1ccccc1CNC(=O)c1ccc2c(c1)c(C)c(C)n2Cc1ccccc1C [BC20203]	++ (“++” >25% increase in NMNAT2 luciferase activity at >1 μM ≤25 μM.)
O=C1c2cccc3c2c(cn3Cc2cccc(F)c2)CCN1Cc1ccccc1F [BC20274]	+ (“+” >25% increase in NMNAT2 luciferase activity at >25 μM.)
Cc1ccc(C)c(Cn2c3c(c4ccccc42)CN(C(=O)NCc2ccco2)CC3)c1 [BC20243]	+++ (“+++” >25% increase in NMNAT2 luciferase activity at ≤1 μM.)
Cc1ccccc1Cn1cc(CCCC(=O)NCc2cccc(F)c2)c2ccccc21 [BC20152]	++ (“++” >25% increase in NMNAT2 luciferase activity at >1 μM ≤25 μM.)
Cc1cccc(Cn2cc(CCCC(=O)NCc3ccccc3C)c3ccccc32)c1 [BC20167]	+++ (“+++” >25% increase in NMNAT2 luciferase activity at ≤1 μM.)
O=C(NCc1cccc(F)c1)N1CCc2c(c3ccccc3n2Cc2ccncc2)C1 [BC20334]	+ (“+” >25% increase in NMNAT2 luciferase activity at >25 μM.)
Cc1ccc(CNC(=O)c2ccc3c(c2)c(C)c(C)n3Cc2cccc(F)c2)o1 [BC20109]	++ (“++” >25% increase in NMNAT2 luciferase activity at >1 μM ≤25 μM.)
O=C1CC(c2cn(Cc3cccc(F)c3)c3ccccc23)CCN1CCOc1ccc(F)cc1 (centres unmarked) [BC20340]	+ (“+” >25% increase in NMNAT2 luciferase activity at >25 μM.)
Cc1ccccc1CCN1CCc2cn(Cc3cccc(F)c3)c3cccc(c23)C1=O [BC20314]	+ (“+” >25% increase in NMNAT2 luciferase activity at >25 μM.)
O=C(C1CCc2c(c3ccccc3n2Cc2cccc(F)c2)C1)N1CCc2occc2C1 (centres unmarked) [BC20260]	++ (“++” >25% increase in NMNAT2 luciferase activity at >1 μM ≤25 μM.)
Cc1ccc(C)c(Cn2c(C(F)F)c(CCC(=O)N3CCN(C(=O)c4ccco4)CC3)c3ccccc32)c1 [BC20400]	++ (“++” >25% increase in NMNAT2 luciferase activity at >1 μM ≤25 μM.)
O=C(NCc1cccnc1)C1CCc2c(c3ccccc3n2Cc2ccncc2)C1 (centres unmarked) [BC20317]	+ (“+” >25% increase in NMNAT2 luciferase activity at >25 μM.)
Cc1ccc(C)c(Cn2c(C(F)F)c(CCC(=O)NC(C)Cc3ccco3)c3ccccc32)c1 (centres unmarked) [BC20401]	++ (“++” >25% increase in NMNAT2 luciferase activity at >1 μM ≤25 μM.)
Cc1ccccc1Cn1c(C)c(C)c2cc(C(=O)NCCc3ccccc3)ccc21 [BC20251]	++ (“++” >25% increase in NMNAT2 luciferase activity at >1 μM ≤25 μM.)
Cc1c(C)n(Cc2cccc(F)c2)c2ccc(C(=O)NCc3ccco3)cc12 [BC20101]	+++ (“+++” >25% increase in NMNAT2 luciferase activity at ≤1 μM.)
O=C(Cn1cc(C(=O)c2ccc(Cl)cc2)c2ccccc21)NCc1ccccc1F [BC20177]	+++ (“+++” >25% increase in NMNAT2 luciferase activity at ≤1 μM.)
Cc1ccccc1Cn1c(C)c(C)c2cc(C(=O)O)ccc21 [BC20306]	+ (“+” >25% increase in NMNAT2 luciferase activity at >25 μM.)
CCCCN(CC)Cc1ccc(CNC(=O)CCCc2cn(Cc3ccccc3C)c3ccccc23)o1 [BC20162]	+++ (“+++” >25% increase in NMNAT2 luciferase activity at ≤1 μM.)
Cc1ccc(C)c(Cn2c3c(c4ccccc42)CC(C(=O)NCc2ccc(C)o2)CC3)c1 (centres unmarked) [BC20183]	+ (“+” >25% increase in NMNAT2 luciferase activity at >25 μM.)
O=C(Cn1c2c(c3ccccc31)CC(C(=O)NCc1cccnc1)CC2)NCc1ccco1 (centres unmarked) [BC20242]	+ (“+” >25% increase in NMNAT2 luciferase activity at >25 μM.)

Compound	E: compound efficacy for NMNAT2 activation (concentration giving >25% increase in NMNAT2 luciferase activity)
O=C(NCC1CCCO1)C1CCCc2c1c1ccccc1n2Cc1cccc(F)c1 (centres unmarked) [BC20370]	+ (“+” >25% increase in NMNAT2 luciferase activity at >25 μM.)
O=C(Nc1cccc(C(F)(F)F)c1)N1CCc2c(c3ccccc3n2Cc2cccc(F)c2)C1 [BC20362]	++ (“++” >25% increase in NMNAT2 luciferase activity at >1 μM ≤25 μM.)
Cc1ccc(C)c(Cn2c(C(F)F)c(CCC(=O)NCc3ccccc3F)c3ccccc32)c1 [BC20393]	++ (“++” >25% increase in NMNAT2 luciferase activity at >1 μM ≤25 μM.)
Cc1ccccc1Cn1c(C)c(C)c2cc(C(=O)NCc3cccc(F)c3)ccc21 [BC20202]	++ (“++” >25% increase in NMNAT2 luciferase activity at >1 μM ≤25 μM.)
Cc1ccc(C)c(Cn2c3c(c4ccccc42)CC(C(=O)NCc2ccccc2C)CC3)c1 (centres unmarked) [BC20185]	++ (“++” >25% increase in NMNAT2 luciferase activity at >1 μM ≤25 μM.)
Cc1cccc(CNC(=O)CCCc2cn(Cc3cccc(C)c3)c3ccccc23)c1 [BC20168]	++ (“++” >25% increase in NMNAT2 luciferase activity at >1 μM ≤25 μM.)
Cc1ccc(C)c(Cn2c(C(F)F)c(C3CC(=O)Nc4cccc(C)c43)c3ccccc32)c1 (centres unmarked) [BC20405]	++ (“++” >25% increase in NMNAT2 luciferase activity at >1 μM ≤25 μM.)
Cc1c(C)n(Cc2ccccc2F)c2ccc(C(=O)NCc3ccncc3)cc12 [BC20197]	++ (“++” >25% increase in NMNAT2 luciferase activity at >1 μM ≤25 μM.)
Cc1ccccc1CNC(=O)C1CCc2c(c3ccccc3n2Cc2cccc(F)c2)C1 (centres unmarked) [BC20223]	+ (“+” >25% increase in NMNAT2 luciferase activity at >25 μM.)
Cc1cccc(Cn2cc(CCCC(=O)NCc3ccc(C)o3)c3ccccc32)c1 [BC20164]	+++ (“+++” >25% increase in NMNAT2 luciferase activity at ≤1 μM.)
O=C1CC(c2cn(Cc3cccc(F)c3)c3ccccc23)CCN1Cc1cccc(F)c1 (centres unmarked) [BC20319]	+ (“+” >25% increase in NMNAT2 luciferase activity at >25 μM.)
Cc1ccc(Cn2c3c(c4ccccc42)C(C(=O)NCCc2ccccc2)CCC3)cc1 (centres unmarked) [BC20388]	+ (“+” >25% increase in NMNAT2 luciferase activity at >25 μM.)
CCCCN(CC)Cc1ccc(CNC(=O)C2CCc3c(c4ccccc4n3Cc3cc(C)ccc3C)C2)o1 (centres unmarked) [BC20219]	++ (“++” >25% increase in NMNAT2 luciferase activity at >1 μM ≤25 μM.)
O=C(NCc1ccco1)N1CCc2c(c3ccccc3n2Cc2cccc(F)c2)C1 [BC20308]	++ (“++” >25% increase in NMNAT2 luciferase activity at >1 μM ≤25 μM.)
Cc1ccc(C)c(Cn2cc([C@H]3C[C@@H]3C(=O)N(CCN(C)C)Cc3ccco3)c3ccccc32)c1 (racemic) [BC20364]	+++ (“+++” >25% increase in NMNAT2 luciferase activity at ≤1 μM.)
COc1cccc(CNC(=O)c2ccc3c(c2)c(C)c(C)n3Cc2ccccc2C)c1 [BC20205]	+ (“+” >25% increase in NMNAT2 luciferase activity at >25 μM.)
O=C(CCCc1cn(Cc2cccc(F)c2)c2ccccc12)NCc1ccco1 [BC20135]	++ (“++” >25% increase in NMNAT2 luciferase activity at >1 μM ≤25 μM.)
COc1ccccc1CNC(=O)c1ccc2c(c1)c(C)c(C)n2Cc1ccccc1F [BC20106]	++ (“++” >25% increase in NMNAT2 luciferase activity at >1 μM ≤25 μM.)
Cc1c(C)n(Cc2cccc(F)c2)c2ccc(C(=O)N3CCc4occc4C3)cc12 [BC20250]	++ (“++” >25% increase in NMNAT2 luciferase activity at >1 μM ≤25 μM.)
O=C(c1ccc(Cl)cc1)c1cn(CC(=O)N2CCN(C(=O)c3ccco3)CC2)c2ccccc12 [BC20182]	+ (“+” >25% increase in NMNAT2 luciferase activity at >25 μM.)
Cc1cccc(CNC(=O)C2CCCc3c2c2ccccc2n3Cc2cccc(F)c2)c1 (centres unmarked) [BC20373]	+ (“+” >25% increase in NMNAT2 luciferase activity at >25 μM.)
Cc1ccc(Cn2cc(C3CCN(Cc4cccc(C)c4)C(=O)C3)c3ccccc32)cc1 (centres unmarked) [BC20233]	++ (“++” >25% increase in NMNAT2 luciferase activity at >1 μM ≤25 μM.)
CCOC(=O)Cn1cc(C2=CC(=O)NCC2)c2ccccc21 [BC20234]	++ (“++” >25% increase in NMNAT2 luciferase activity at >1 μM ≤25 μM.)
